Assay: Glucuronidation of 1′-hydroxymyristicin, male rat liver S9
Type: in vitro ADME
Description: The kinetic constants for the metabolic conversion of 1′-hydroxymyristicin to 1′-hydroxymyristicin glucuronide (HMG) by both male rat and human liver fractions were determined as described previously for the related 1′-hydroxyalkenylbenzenes (Punt et al. [2008]; van den Berg et al. [2012]; Punt et al. [2009]; Martati et al. [2011], [2012]; Al-Subeihi et al. [2011], [2012]). Briefly, incubations contained (final concentrations) 10 mM of UDPGA and 0.5 mg/ml of male Sprague–Dawley or pooled gender human S9 protein in 0.2 M Tris–HCl (pH 7.4) containing 10 mM of MgCl2. To overcome enzyme latency and to obtain maximal glucuronidation activity, incubations containing S9 were pretreated on ice with 0.025 mg/ml alamethicin added from a 200 times concentrated stock dissolved in methanol (Fisher et al. [2000]; Lin and Wong [2002]). After 15 min of alamethicin treatment, samples were pre-incubated at 37 °C for 1 min, and reactions were subsequently started by adding 1′-hydroxymyristicin at final concentrations of 10 to 1200 μM. 1′-Hydroxymyristicin was added from 100 times concentrated stock solutions in DMSO. The reaction mixtures were incubated for 30 and 180 min for rat and human, respectively, and terminated by adding 25 µl (0.25 times the incubation volume) of ice-cold ACN. Blank incubations were carried out in the absence of the cofactor UDPGA. Experiments were performed in triplicate. The longer incubation time in human samples was required due to the lower rate of glucuronidation. The formation of 1′-hydroxymyristicin glucuronide was linear with time and the S9 protein concentration under the experimental conditions described. All samples were centrifuged for 5 min at 16,000×g, and the supernatant was stored at −20 °C until ultra-performance liquid chromatography (UPLC) analysis.
1′-Hydroxymyristicin glucuronide was estimated based on the comparison of the peak area of the formed metabolite to the calibration curve of 1′-hydroxymyristicin at a wavelength of 210 nm. The flow rate was 0.6 ml/min. The gradient was made using a mixture of ACN and ultrapure water containing 0.1 % (v/v) TFA.

For `C=CC(O)c1cc(OC)c2c(c1)OCO2` (centres unmarked) [1′-Hydroxymyristicin, 1′-hydroxymyristicin], the Km at 30 min (male, Sprague-Dawley, rat, pH 7.4, 1′-hydroxymyristicin to its glucuronide, S9, UDPGA, read-out: Km) was 836 µM and the “catalytic efficiency of glucuronidation, fold higher in male rats than in human” value (rat vs human) was 400 fold.

Source: paper PMC5306082, “Physiologically based kinetic modeling of the bioactivation of myristicin” (Archives of Toxicology, 2016)
